Consider 30 compounds from patent US12084419B2, “Cell metabolism modulating compounds and uses thereof” (CRESCENTA BIOSCIENCES, priority 2020, dated 2024).

Structures are written as SMILES.

This experiment deals with T1, His6 tagged human recombinant FABP4 (Homo sapiens, UniProt P15090).
T1 construct: purchased Cayman Chemicals 10009549
Briefly: FABP4 TR-FRET assay: displacement of BODIPY FL C12 fatty acid. To be noted: triplicates, inhibition of BODIPY FL C12 binding; for inhibition at 1 µM: 1 μM compound; for inhibition at 10 µM: 10 μM compound. The text has this:
Activity of compounds with FABP4 was profiled using a Terbium (Tb) based time resolved fluorescence energy transfer (TR-FRET) assay. The assay measures the compound mediated displacement of the fluorescent fatty acid BODIPY FL C12 (Thermo Fisher; catalog number D3822) from His6 tagged human recombinant FABP4 (His6-FABP4; Cayman Chemicals, catalog number 10009549) via recording the energy transfer from TB donor molecule on anti-His6-tag antibody to acceptor BODIPY moiety. Briefly, compounds were prepared at a concentration of 0.362 mM and 0.0362 mM, and BODIPY FL C12 was prepared at 4.2 μM, in DMSO. 1.2 μL of each compound or DMSO (vehicle control) and 1.2 μL of BODIPY FL C12 were added into the wells of a 384-well black polypropylene plate. His6-FABP4 and Tb anti-His6 antibody were prepared in the assay buffer (25 mM Tris/HCl, pH 7.4, 0.4 mg/ml y-globulins, 0.010% NP-40, 1 mM DTT) at a concentration of 83 nM and 49.6 nM, respectively. The protein and antibody solutions were then mixed at a ratio of 34:7 (v/v) and incubated on ice for 30 minutes. The assay was initiated by adding 41 μL of the resulting protein/antibody solution into the wells containing the compounds and BODIPY FL C12. The plate was centrifuged and incubated at room temperature for 10 min. The TR-FRET signals were recorded using an EnVision Multilabel plate reader (PerkinElmer; TB excitation 320 nm, BODIPY FL C12 emission 520 nm; TB emission 615 nm). Relative fluorescence ratio (520 nm*10,000/615 nm) were used to calculate the compound mediated inhibition of BODIPY C12 FL fatty acid binding to FABP4. […] Glucose consumption and FABP4 inhibition is shown below in Table 3 below.
On the technique in general: TR-FRET usually uses a lanthanide donor and a delayed reading to cut background.

T1 sequence (P15090 whole entry): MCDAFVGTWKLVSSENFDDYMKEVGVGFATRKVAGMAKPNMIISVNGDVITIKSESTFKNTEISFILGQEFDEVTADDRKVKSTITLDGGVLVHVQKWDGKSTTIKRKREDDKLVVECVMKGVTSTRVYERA

What is called inhibition is the drop in the measured response relative to a control, in per cent. For the compound `CCCCC1CCCc2c1n(Cc1cccc(C(N)=O)c1)c1c(C(=O)O)cccc21` (stereo not shown) [1-butyl-9-[(3-carbamoylphenyl)methyl]-2,3,4,9-tetrahydro-1H-carbazole-8-carboxylic acid], the inhibition at 1 µM amounted to 83% and the inhibition at 10 µM worked out at 86.2%.
With `CCCCC1CCCc2c1n(Cc1cccc(C#N)c1)c1c(C(=O)O)cccc21` (stereo not shown) [1-butyl-9-[(3-cyanophenyl)methyl]-2,3,4,9-tetrahydro-1H-carbazole-8-carboxylic acid], the inhibition at 1 µM worked out at 58% and the inhibition at 10 µM came out at 93.7%.
On the same counts, the results for `CCCCC1CCCc2c(n(Cc3cccc(C(N)=O)c3)c3c(C(=O)NCC(=O)O)cccc23)C1` (stereo not shown) [2-({7-butyl-5-[(3-carbamoylphenyl)methyl]-5H,6H,7H,8H,9H,10H-cyclohepta[b]indol-4-yl}formamido)acetic acid] are 59% and 90.2%.
`CCCCC1CCCc2c(n(Cc3cccc(C#N)c3)c3c(C(=O)NCC(=O)O)cccc23)C1` (stereo not shown) [2-({7-butyl-5-[(3-cyanophenyl)methyl]-5H,6H,7H,8H,9H,10H-cyclohepta[b]indol-4-yl}formamido)acetic acid]: the inhibition at 1 µM was determined as 8.61% and the inhibition at 10 µM was determined as 41%.
For `CCCCC1Cc2c(n(Cc3cccc(C(N)=O)c3)c3c(C(=O)O)cccc23)C1` (stereo not shown) [2-butyl-4-[(3-carbamoylphenyl)methyl]-1H,2H,3H,4H-cyclopenta[b]indole-5-carboxylic acid], the inhibition at 1 µM was found to be 87.2% and the inhibition at 10 µM stood at 95.2%.
On to `CCCCC1Cc2c(n(Cc3cccc(C#N)c3)c3c(C(=O)O)cccc23)C1` (stereo not shown) [2-butyl-4-[(3-cyanophenyl)methyl]-1H,2H,3H,4H-cyclopenta[b]indole-5-carboxylic acid], for which the inhibition at 1 µM turned out to be 62.1% and the inhibition at 10 µM is 85.1%.
Taken in the same sequence, the figures for `CCCCC1CCc2c(n(Cc3cccc(C(N)=O)c3)c3c(C(=O)O)cccc23)C1` (stereo not shown) [2-butyl-9-[(3-carbamoylphenyl)methyl]-2,3,4,9-tetrahydro-1H-carbazole-8-carboxylic acid] were 88.5% and 95.5%.
As to `CCCCCCC1CCc2c(n(Cc3ccnc(OC)c3)c3c(C(=O)O)cccc23)C1` (stereo not shown) [2-hexyl-9-[(2-methoxypyridin-4-yl)methyl]-2,3,4,9-tetrahydro-1H-carbazole-8-carboxylic acid], the inhibition at 1 µM was determined as 44.2% and the inhibition at 10 µM was 77.8%.
With `CCCCCCC1CCc2c(n(Cc3ccccc3C)c3c(C(=O)O)cccc23)C1` (stereo not shown) [2-hexyl-9-[(2-methylphenyl)methyl]-2,3,4,9-tetrahydro-1H-carbazole-8-carboxylic acid], the inhibition at 1 µM was determined as 87.4% and the inhibition at 10 µM turned out to be 83.2%.
Turning to `CCCCCCC1CCc2c(n(Cc3cccc(O)c3)c3c(C(=O)O)cccc23)C1` (stereo not shown) [2-hexyl-9-[(3-hydroxyphenyl)methyl]-2,3,4,9-tetrahydro-1H-carbazole-8-carboxylic acid], the inhibition at 1 µM came out at 77.9% and the inhibition at 10 µM worked out at 93.1%.
On the same counts, the results for `CCCCCCC1CCc2c(n(Cc3ccc(C)cc3)c3c(C(=O)O)cccc23)C1` (stereo not shown) [2-hexyl-9-[(4-methylphenyl)methyl]-2,3,4,9-tetrahydro-1H-carbazole-8-carboxylic acid] are 74.3% and 88.5%.
As for `CCCCC1CCc2c1n(Cc1cccc(C(N)=O)c1)c1c(C(=O)O)cccc21` (stereo not shown) [3-butyl-4-[(3-carbamoylphenyl)methyl]-1H,2H,3H,4H-cyclopenta[b]indole-5-carboxylic acid], the inhibition at 1 µM came out at 96.8% and the inhibition at 10 µM was 98.5%.
Take `CCCCC1CCc2c1n(Cc1cccc(C#N)c1)c1c(C(=O)O)cccc21` (stereo not shown) [3-butyl-4-[(3-cyanophenyl)methyl]-1H,2H,3H,4H-cyclopenta[b]indole-5-carboxylic acid]: the inhibition at 1 µM was 85.1% and the inhibition at 10 µM worked out at 98.5%.
Turning to `CCCCC1CCc2c(c3cccc(C(=O)O)c3n2Cc2cccc(C(N)=O)c2)C1` (stereo not shown) [3-butyl-9-[(3-carbamoylphenyl)methyl]-2,3,4,9-tetrahydro-1H-carbazole-8-carboxylic acid], the inhibition at 1 µM was 92.4% and the inhibition at 10 µM was 97.2%.
Taken in the same sequence, the figures for `CCCCC1CCc2c(c3cccc(C(=O)O)c3n2Cc2cccc(C#N)c2)C1` (stereo not shown) [3-butyl-9-[(3-cyanophenyl)methyl]-2,3,4,9-tetrahydro-1H-carbazole-8-carboxylic acid] were 35.8% and 81.1%.
As to `CCCCCC1Cc2c(n(Cc3cccc(C(N)=O)c3)c3c(C(=O)O)cccc23)C1` (stereo not shown) [4-[(3-carbamoylphenyl)methyl]-2-pentyl-1H,2H,3H,4H-cyclopenta[b]indole-5-carboxylic acid], the inhibition at 1 µM was determined as 86.9% and the inhibition at 10 µM came out at 93.1%.
As for `CCC1CCc2c1n(Cc1cccc(C(N)=O)c1)c1c(C(=O)O)cccc21` (stereo not shown) [4-[(3-carbamoylphenyl)methyl]-3-ethyl-1H,2H,3H,4H-cyclopenta[b]indole-5-carboxylic acid], the inhibition at 1 µM amounted to 87.3% and the inhibition at 10 µM was found to be 102%.
Consider `CCCC1CCc2c1n(Cc1cccc(C(N)=O)c1)c1c(C(=O)O)cccc21` (stereo not shown) [4-[(3-carbamoylphenyl)methyl]-3-propyl-1H,2H,3H,4H-cyclopenta[b]indole-5-carboxylic acid], for which the inhibition at 1 µM stood at 89.1% and the inhibition at 10 µM was found to be 95.3%.
As to `CCCCCC1Cc2c(n(Cc3cccc(C#N)c3)c3c(C(=O)O)cccc23)C1` (stereo not shown) [4-[(3-cyanophenyl)methyl]-2-pentyl-1H,2H,3H,4H-cyclopenta[b]indole-5-carboxylic acid], the inhibition at 1 µM came to 39.5% and the inhibition at 10 µM was 78.3%.
Regarding `CCC1CCc2c1n(Cc1cccc(C#N)c1)c1c(C(=O)O)cccc21` (stereo not shown) [4-[(3-cyanophenyl)methyl]-3-ethyl-1H,2H,3H,4H-cyclopenta[b]indole-5-carboxylic acid], the inhibition at 1 µM amounted to 54.8% and the inhibition at 10 µM was found to be 86.2%.
Taken in the same sequence, the figures for `CCCC1CCc2c1n(Cc1cccc(C#N)c1)c1c(C(=O)O)cccc21` (stereo not shown) [4-[(3-cyanophenyl)methyl]-3-propyl-1H,2H,3H,4H-cyclopenta[b]indole-5-carboxylic acid] were 67.8% and 97.6%.
Taken in the same sequence, the figures for `CCCCC1CCCc2c1c1cccc(C(=O)O)c1n2Cc1cccc(C(N)=O)c1` (stereo not shown) [4-butyl-9-[(3-carbamoylphenyl)methyl]-2,3,4,9-tetrahydro-1H-carbazole-8-carboxylic acid] were 43.3% and 83.4%.
Taken in the same sequence, the figures for `CCCCC1CCCc2c1c1cccc(C(=O)O)c1n2Cc1cccc(C#N)c1` (stereo not shown) [4-butyl-9-[(3-cyanophenyl)methyl]-2,3,4,9-tetrahydro-1H-carbazole-8-carboxylic acid] were 25.3% and 65.5%.
Turning to `CCCCCCC1CCCc2c(n(C(=O)c3cccc(C#N)c3)c3c(C(=O)O)cccc23)C1` (stereo not shown) [5-(3-cyanobenzoyl)-7-hexyl-5H,6H,7H,8H,9H,10H-cyclohepta[b]indole-4-carboxylic acid], the inhibition at 1 µM turned out to be 87.1% and the inhibition at 10 µM was found to be 88.5%.
Turning to `CCCCCCC1CCCc2c(n(Cc3ccc4ocnc4c3)c3c(C(=O)O)cccc23)C1` (stereo not shown) [5-[(1,3-benzoxazol-5-yl)methyl]-7-hexyl-5H,6H,7H,8H,9H,10H-cyclohepta[b]indole-4-carboxylic acid], the inhibition at 10 µM came out at 88.5%.
As to `CCCCCCC1CCCc2c(n(Cc3ccc4ncoc4c3)c3c(C(=O)O)cccc23)C1` (stereo not shown) [5-[(1,3-benzoxazol-6-yl)methyl]-7-hexyl-5H,6H,7H,8H,9H,10H-cyclohepta[b]indole-4-carboxylic acid], the inhibition at 1 µM was determined as 101% and the inhibition at 10 µM is 94.9%.
Turning to `CCCCCCC1CCCc2c(n(Cc3cccc4ncoc34)c3c(C(=O)O)cccc23)C1` (stereo not shown) [5-[(1,3-benzoxazol-7-yl)methyl]-7-hexyl-5H,6H,7H,8H,9H,10H-cyclohepta[b]indole-4-carboxylic acid], the inhibition at 1 µM was 92% and the inhibition at 10 µM came to 95.3%.
On to `CCCCCCC1CCCc2c(n(Cc3ccccc3C(N)=O)c3c(C(=O)O)cccc23)C1` (stereo not shown) [5-[(2-carbamoylphenyl)methyl]-7-hexyl-5H,6H,7H,8H,9H,10H-cyclohepta[b]indole-4-carboxylic acid], for which the inhibition at 1 µM was 79.2% and the inhibition at 10 µM worked out at 82%.
`CCCCCCC1CCCc2c(n(Cc3ccccc3C#N)c3c(C(=O)O)cccc23)C1` (stereo not shown) [5-[(2-cyanophenyl)methyl]-7-hexyl-5H,6H,7H,8H,9H,10H-cyclohepta[b]indole-4-carboxylic acid]: the inhibition at 10 µM is 88.6%.
In the case of `CCCCCCC1CCCc2c(n(Cc3ccccc3F)c3c(C(=O)O)cccc23)C1` (stereo not shown) [5-[(2-fluorophenyl)methyl]-7-hexyl-5H,6H,7H,8H,9H,10H-cyclohepta[b]indole-4-carboxylic acid], the inhibition at 1 µM amounted to 77.5% and the inhibition at 10 µM came to 87.3%.
